Assay results as given in patent publication US9242945B2, “Substituted 2-benzylidene-2H-benzo[b][1,4]thiazin-3(4H)-ones, derivatives thereof, and therapeutic uses thereof” (TEMPLE UNIVERSITY—OF THE COMMONWEALTH SYSTEM OF HIGHER …, priority 2011, dated 2016).

How the values were obtained:
[1] = tested on: BT-474; experiment: Cancer cell cytotoxicity assay, BT-474; format: cell-based; settings: Homo sapiens; BT-474, Breast Cancer
Procedure: (§1) The effect of the compounds of the invention on tumor cells was determined by the assay described by Latham et al., Oncogene 12:827-837 (1996). Tumor cells K562 (chronic myelogenous leukemia; leukemia cell line +ve for Bcr-Abl) or DU145 (prostate cancer) were plated in 12-well dishes at a cell density of 2.5×10^4 cells well. The plated cells were treated 24 hours later with a compound of the invention dissolved in DMSO at multiple concentrations ranging from 0.01 μM to 100 μM. The plates were examined 96 hours later under an inverted microscope, Olympus CK-2 using a 10× objective, and compound activity was noted by physical observation. When necessary, the total number of viable cells was determined by trypsinizing the wells and counting the number of viable cells, as determined by trypan blue exclusion, using a hemacytometer. Where “Lower” and “Upper” value are provided in Table 5, the IC50 was determined to be within that range. […]
(§2) The cytotoxicity of Compound 42, (Z)-6-((2,6-dichlorobenzyl)sulfonyl)-2-(4-hydroxy-3-nitrobenzylidene)-2H-benzo[b][1,4]thiazin-3(4H)-one, was determined according the assay method of Example 7 on the prostate (androgen dependent or independent), breast and pancreatic cancer cell lines listed in Table 6A, below, and the additional cell lines listed in Table 6B, below. […]

[2] = tested on: MiaPaca 2; experiment: Cancer cell cytotoxicity assay, MiaPaca 2; format: cell-based; settings: Homo sapiens, MIA PaCa-2; MiaPaca 2, Pancreatic Cancer
Procedure: as §1, §2

[3] = tested on: RPWE-1; experiment: Cancer cell cytotoxicity assay, RPWE-1; format: cell-based; settings: RPWE-1, Normal prostate epithelium
Procedure: as §1, §2

[4] = tested on: HCT-116; experiment: Cancer cell cytotoxicity assay, HCT-116; format: cell-based; settings: Homo sapiens; HCT-116, Colon cancer
Procedure: as §1, §2

[5] = tested on: DU145 (prostate cancer); experiment: Cytotoxicity assay, DU145 tumor cells; format: cell-based; settings: Homo sapiens
Procedure: The effect of the compounds of the invention on tumor cells was determined by the assay described by Latham et al., Oncogene 12:827-837 (1996). Tumor cells K562 (chronic myelogenous leukemia; leukemia cell line +ve for Bcr-Abl) or DU145 (prostate cancer) were plated in 12-well dishes at a cell density of 2.5×10^4 cells well. The plated cells were treated 24 hours later with a compound of the invention dissolved in DMSO at multiple concentrations ranging from 0.01 μM to 100 μM. The plates were examined 96 hours later under an inverted microscope, Olympus CK-2 using a 10× objective, and compound activity was noted by physical observation. When necessary, the total number of viable cells was determined by trypsinizing the wells and counting the number of viable cells, as determined by trypan blue exclusion, using a hemacytometer. Where “Lower” and “Upper” value are provided in Table 5, the IC50 was determined to be within that range. When only a “Lower” value is provided and no “Upper” value is listed, the IC50 was that value, or less than or greater than that value, as set forth in the Table.
The cytotoxicity of Compound 42, (Z)-6-((2,6-dichlorobenzyl)sulfonyl)-2-(4-hydroxy-3-nitrobenzylidene)-2H-benzo[b][1,4]thiazin-3(4H)-one, was determined according the assay method of Example 7 on the prostate (androgen dependent or independent), breast and pancreatic cancer cell lines listed in Table 6A, below, and the additional cell lines listed in Table 6B, below. The human mesenchymal stem cell line HMSC.hTERT and normal human fibroblast cell line HFL was included in the test.

[6] = tested on: HFL; experiment: Cytotoxicity assay, normal human fibroblast cell line HFL; format: cell-based
Procedure: as §1, §2

[7] = biological target: T1, CDK9 (Homo sapiens, UniProt P50750); experiment: CDK9 inhibition (32P-ATP kinase assay); format: biochemical; settings: PDKtide substrate, 20 μM cold ATP
T1 construct: CDK9 (human full length protein; Invitrogen PV4335); purchased Invitrogen PV4335
T1 sequence (P50750 whole entry): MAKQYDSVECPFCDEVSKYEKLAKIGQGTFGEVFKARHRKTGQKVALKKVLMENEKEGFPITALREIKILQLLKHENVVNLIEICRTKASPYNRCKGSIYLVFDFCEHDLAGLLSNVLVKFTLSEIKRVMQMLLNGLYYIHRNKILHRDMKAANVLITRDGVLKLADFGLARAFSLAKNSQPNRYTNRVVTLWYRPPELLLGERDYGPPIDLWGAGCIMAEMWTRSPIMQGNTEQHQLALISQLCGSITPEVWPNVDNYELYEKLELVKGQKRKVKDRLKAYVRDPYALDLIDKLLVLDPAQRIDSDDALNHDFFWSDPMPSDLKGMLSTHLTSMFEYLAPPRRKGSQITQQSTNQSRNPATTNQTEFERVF
T1 sequence (O75909 whole entry partner): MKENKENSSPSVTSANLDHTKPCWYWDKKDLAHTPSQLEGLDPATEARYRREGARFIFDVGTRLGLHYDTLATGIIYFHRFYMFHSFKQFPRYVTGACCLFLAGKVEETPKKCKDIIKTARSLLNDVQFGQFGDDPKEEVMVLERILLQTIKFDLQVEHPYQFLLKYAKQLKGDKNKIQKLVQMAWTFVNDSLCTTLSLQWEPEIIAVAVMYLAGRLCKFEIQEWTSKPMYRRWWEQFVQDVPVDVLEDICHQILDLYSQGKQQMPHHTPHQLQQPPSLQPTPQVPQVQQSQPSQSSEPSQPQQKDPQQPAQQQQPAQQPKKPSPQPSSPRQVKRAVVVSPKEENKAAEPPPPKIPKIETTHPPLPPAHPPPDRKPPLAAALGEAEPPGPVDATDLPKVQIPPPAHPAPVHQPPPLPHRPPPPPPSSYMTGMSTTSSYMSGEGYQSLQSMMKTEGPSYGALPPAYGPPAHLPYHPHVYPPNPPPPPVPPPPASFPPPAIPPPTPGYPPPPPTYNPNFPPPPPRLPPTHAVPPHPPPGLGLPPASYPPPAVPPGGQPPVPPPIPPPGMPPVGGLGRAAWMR
Procedure: The ability of Compound 42 to inhibit the activity of the kinase CDK9 was determined as follows. Twenty-five nanograms of CDK9 (human full length protein; Invitrogen PV4335) was diluted into kinase buffer (20 mM Tris pH 7.5, 10 mM MgCl2, 0.01% NP-40, 1 mM EGTA, 2 mM DTT) and incubated with varying concentrations of Compound 42 at room temperature for 30 minutes. The kinase reactions were initiated by the addition of 20 μM of CDK9/Cyclin K specific synthetic peptide substrate (PDKtide, P10-58, SignalChem), 20 μM cold ATP, and 20 μCi γ-32P-ATP. The reactions were incubated at 30° C. for 20 minutes and terminated by the addition of 0.5M o-Phosphoric acid. 10 μl of the reaction mixture was spotted on a P-30 Filtermat (PerkinElmer) and developed using autoradiography or phosphorimaging.

[8] = biological target: T2, CK2α (Homo sapiens, UniProt P68400); experiment: Casein kinase 2 inhibition, CK2α subunit (32P-ATP kinase assay); format: biochemical; settings: 20 μM cold ATP; 30 min preincubation, 20 min at 30° C.
T2 construct: CK2α (human full length protein)
T2 sequence (P68400 3-339 limits assumed): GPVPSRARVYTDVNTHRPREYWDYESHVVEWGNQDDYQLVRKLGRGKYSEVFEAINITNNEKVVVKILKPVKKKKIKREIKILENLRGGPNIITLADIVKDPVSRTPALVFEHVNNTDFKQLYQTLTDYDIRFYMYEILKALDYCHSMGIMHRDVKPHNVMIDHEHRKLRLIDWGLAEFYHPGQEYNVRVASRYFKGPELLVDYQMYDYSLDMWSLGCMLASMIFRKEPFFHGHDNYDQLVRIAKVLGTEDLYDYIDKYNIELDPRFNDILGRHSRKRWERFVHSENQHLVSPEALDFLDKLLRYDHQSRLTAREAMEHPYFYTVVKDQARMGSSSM
Procedure: (§3) The ability of Compound 42 to inhibit the activity of casein kinase 2 (CK2) was determined as follows using the catalytic CK2 subunits CK2α and CK2α2. Two and one half nanograms of CK2α (human full length protein; Invitrogen PV3248), 2.5 ng of a CK2α form containing amino acids 3-339) or 10 ng of CK2α2 (human full length protein; Invitrogen PV3624) was diluted into kinase buffer (20 mM Tris pH 7.5, 10 mM MgCl2, 0.01% NP-40, 1 mM EGTA, 2 mM DTT) and incubated with varying concentrations of Compound 42 at room temperature for 30 minutes. Kinase reactions were initiated by the addition of 1 μg of CK2 substrate α-synuclein or 40 μM CK2 synthetic peptide substrate (AnaSpec, San Jose, Calif.), 20 μM cold ATP, and 20 μCi γ-^32P-ATP. The reactions were incubated at 30° C. for 20 minutes, terminated by the addition of 2× Laemmle sample buffer, boiled for 2 minutes, resolved by 12% acrylamide SDS-PAGE, and subjected to autoradiography.

[9] = tested on: MDA.MB-231 breast cancer cells; experiment: Cell cycle arrest in cancer cells; format: cell-based; settings: increasing concentrations
From the text: MDA.MB-231 breast cancer cells treated with increasing concentrations Compound 42

[10] = tested on: GRANTA; experiment: Cancer cell cytotoxicity assay, GRANTA; format: cell-based; settings: Mantle cell lymphoma
Procedure: as §1, §2

[11] = tested on: U266B1; experiment: Cancer cell cytotoxicity assay, U266B1; format: cell-based; settings: U266B1, Multiple Myeloma
Procedure: as §1, §2

[12] = tested on: LnCap; experiment: Cancer cell cytotoxicity assay, LnCap; format: cell-based; settings: Homo sapiens, Prostate Cancer (Androgen Dependent)
Procedure: as §1, §2

[13] = tested on: A549; experiment: Cancer cell cytotoxicity assay, A549; format: cell-based; settings: Homo sapiens; A549, Non-small cell lung cancer
Procedure: as §1, §2

[14] = biological target: T3, CK2α2 (Homo sapiens, UniProt P19784); experiment: Casein kinase 2 inhibition, CK2α2 subunit (32P-ATP kinase assay); format: biochemical; settings: 20 μM cold ATP; 30 min preincubation, 20 min at 30° C.
T3 construct: CK2α2 (human full length protein; Invitrogen PV3624); purchased Invitrogen PV3624
T3 sequence (P19784 whole entry): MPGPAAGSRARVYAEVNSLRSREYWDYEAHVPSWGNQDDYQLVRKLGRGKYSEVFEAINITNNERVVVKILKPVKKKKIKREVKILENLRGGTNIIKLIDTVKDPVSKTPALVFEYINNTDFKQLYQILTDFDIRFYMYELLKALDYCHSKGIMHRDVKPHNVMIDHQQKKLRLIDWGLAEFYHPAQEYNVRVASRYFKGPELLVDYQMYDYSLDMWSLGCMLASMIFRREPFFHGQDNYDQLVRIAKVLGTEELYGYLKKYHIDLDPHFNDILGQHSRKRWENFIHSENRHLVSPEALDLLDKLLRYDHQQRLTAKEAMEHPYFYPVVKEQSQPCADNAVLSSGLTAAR
Procedure: as §3

[15] = tested on: VCAP; experiment: Cancer cell cytotoxicity assay, VCAP; format: cell-based; settings: Homo sapiens, Prostate Cancer
Procedure: as §1, §2

[16] = tested on: MCF10A; experiment: Cytotoxicity assay, MCF10A; format: cell-based; settings: Homo sapiens, MCF-10A, Normal Breast
Procedure: as §1, §2

[17] = tested on: HMSC.hTERT; experiment: Cytotoxicity assay, human mesenchymal stem cell line HMSC.hTERT; format: cell-based
Procedure: as §1, §2

[18] = tested on: Z138C; experiment: Cancer cell cytotoxicity assay, Z138C; format: cell-based; settings: Mantle cell lymphoma
Procedure: as §1, §2

[19] = tested on: MCF-7; experiment: Cancer cell cytotoxicity assay, MCF-7; format: cell-based; settings: Homo sapiens, MCF7; MCF-7, Breast Cancer
Procedure: as §1, §2

[20] = tested on: 22Rv1; experiment: Cancer cell cytotoxicity assay, 22Rv1; format: cell-based; settings: Homo sapiens; 22Rv1, Prostate Cancer
Procedure: as §1, §2

[21] = tested on: H23; experiment: Cancer cell cytotoxicity assay, H23; format: cell-based; settings: Homo sapiens, NCI-H23; H23, Non-small cell lung cancer
Procedure: as §1, §2

With `O=C1Nc2cc(S(=O)(=O)Cc3c(Cl)cccc3Cl)ccc2S/C1=C\c1ccc(O)c([N+](=O)[O-])c1` [Compound 42, (Z)-6-((2,6-dichlorobenzyl)sulfonyl)-2-(4-hydroxy-3-nitrobenzylidene)-2H-benzo[b][1,4]thiazin-3(4H)-one] the GI50 [1] was 200 nM, the GI50 [2] was 90 nM and the GI50 [3] was 100 nM. The GI50 [4] was 150 nM, the IC50 ([5]; DU-145, 96 h treatment, lower limit of the IC50 range, or the IC50 itself (or its bound) where no Upper value is listed, read-out: DU145 IC50 (μm) Lower (μm)) was 150 nM and the GI50 ([5]; DU-145, Prostate Cancer (Androgen Independent)) was 160 nM. The “cell death in the normal human fibroblast cell line” value [6] was “did not cause cell death”, the GI50 ([6]; Homo sapiens, Normal Fibroblast) was over 10000 nM and the IC50 [7] was 93.7 nM. The IC50 [8] was 362 nM, the “cell cycle arrest in cancer cells” value [9] was “induces cell cycle arrest” and the GI50 [10] was 80 nM. The GI50 [11] was 100 nM, the GI50 [12] was 250 nM and the GI50 [13] was 160 nM. The IC50 [14] was 83.1 nM, the GI50 [15] was 180 nM and the GI50 [16] was 2500 nM. The “cell death in the normal human stem cell line” value [17] was “did not cause cell death”, the GI50 ([17]; Human Mesenchymal Stem cells) was over 10000 nM and the GI50 [18] was 70 nM. It also gave a GI50 [19] of 1000 nM, a GI50 [20] of 500 nM and a GI50 [21] of 65 nM.
